Assay results: patent US11753407B2, “Compounds for treating spinal muscular atrophy” (PTC Therapeutics, Inc., priority 2012, dated 2023)

How the values were obtained:
[1] = system: SMN2 minigene mRNA (SMN2-A minigene) in HEK293H cells; experiment: SMN2 minigene mRNA splicing RT-qPCR assay in cultured cells; format: cell-based, human; details: Homo sapiens, HEK293-H; concentration increasing full length SMN2 mRNA 1.5-fold relative to vehicle-treated cells; HEK293H cells with SMN2-A minigene, 24 hours, 7-point concentration data; read-out: EC1.5x for production of full length SMN2 mRNA
Procedure, shortened: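 EC1.5× values derive from a 24 h treatment of SMN2-A minigene HEK293H cells and GAPDH-normalized RT-qPCR of exon 7-included minigene mRNA relative to vehicle-treated cells.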

[2] = system: Smn protein in SMA patient fibroblast cells (GM03813); experiment: Smn protein assay in cultured cells (SMN HTRF); format: cell-based, human; details: SMA patient fibroblast cells, 48 hours; for maximum fold (Fold) increase of Smn protein: 7-point concentration data, fold relative to vehicle control; for EC1.5x for Smn protein expression: 7-point concentration curve, SMN HTRF, concentration producing 1.5 times Smn protein vs DMSO vehicle control
Procedure, shortened: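 Cells were cultured 72 h, seeded at 5,000/well and dosed with seven concentrations (3.16-fold apart) for 48 h. HTRF on lysates, read at 665 and 620 nm, gave blank-corrected ΔF values relative to DMSO. Potency is reported as EC1.5×, efficacy as maximal fold Smn increase.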

SMILES	EC (1.5-fold increase) [1] [µM]	maximum fold (Fold) increase of Smn protein [2]	melting point [°C]	EC1.5x for Smn protein expression [2]
COc1ccc(-c2cc(=O)n3cc(N4CCNCC4)ccc3n2)cn1 [Compound 88, 2-(6-methoxypyridin-3-yl)-7-(piperazin-1-yl)-4H-pyrido[1,2-a]pyrimidin-4-one]	1 to 3	** (a fold increase between >1.2 and ≤1.35 is indicated by two stars (**))	173 to 178	
COc1ccc(-c2cc(=O)n3cc(N4CCNCC4)ccc3n2)c(OC)c1 [Compound 89, 2-(2,4-dimethoxyphenyl)-7-(piperazin-1-yl)-4H-pyrido[1,2-a]pyrimidin-4-one]	1 to 3	*** (a fold increase between >1.35 and ≤1.5 is indicated by three stars (***))	171 to 173	
COc1ccc(-c2cc(=O)n3cc(N4CCN[C@@H](C)C4)ccc3n2)c(OC)c1 [Compound 90, 2-(2,4-dimethoxyphenyl)-7-[(3S)-3-methylpiperazin-1-yl]-4H-pyrido[1,2-a]pyrimidin-4-one]	1 to 3	*** (a fold increase between >1.35 and ≤1.5 is indicated by three stars (***))	172 to 177	* (An EC1.5× for Smn protein expression between >3 μM and ≤10 μM is indicated by one star (*))
C[C@H]1CN(c2ccc3nc(-c4cncc(F)c4)cc(=O)n3c2)CCN1 [Compound 93, 2-(5-fluoropyridin-3-yl)-7-[(3S)-3-methylpiperazin-1-yl]-4H-pyrido[1,2-a]pyrimidin-4-one]	1 to 3	** (a fold increase between >1.2 and ≤1.35 is indicated by two stars (**))	191 to 199	
O=c1cc(-c2cncc(Cl)c2)nc2ccc(N3CCNCC3)cn12 [Compound 94, 2-(5-chloropyridin-3-yl)-7-(piperazin-1-yl)-4H-pyrido[1,2-a]pyrimidin-4-one]	1 to 3	*** (a fold increase between >1.35 and ≤1.5 is indicated by three stars (***))	208 to 218	
C[C@H]1CN(c2ccc3nc(-c4cncc(Cl)c4)cc(=O)n3c2)CCN1 [Compound 95, 2-(5-chloropyridin-3-yl)-7-[(3S)-3-methylpiperazin-1-yl]-4H-pyrido[1,2-a]pyrimidin-4-one]	1 to 3	**** (a fold increase between >1.5 and ≤1.65 is indicated by four stars (****))	227 to 232	** (an EC1.5× between >1 μM and ≤3 μM is indicated by two stars (**))
COc1ncc(-c2cc(=O)n3cc(N4CCNCC4)ccc3n2)cc1Cl [Compound 96, 2-(5-chloro-6-methoxypyridin-3-yl)-7-(piperazin-1-yl)-4H-pyrido[1,2-a]pyrimidin-4-one]	0.3 to 1	**** (a fold increase between >1.5 and ≤1.65 is indicated by four stars (****))	201 to 209	*** (an EC1.5× between >0.3 μM and ≤1 μM is indicated by three stars (***))
O=c1cc(-c2ccc3cc[nH]c3c2)nc2ccc(N3CCNCC3)cn12 [Compound 97, 2-(1H-indol-6-yl)-7-(piperazin-1-yl)-4H-pyrido[1,2-a]pyrimidin-4-one]	1 to 3	** (a fold increase between >1.2 and ≤1.35 is indicated by two stars (**))	202 to 206	
O=c1cc(-c2ccc(O)c(OC(F)F)c2)nc2ccc(N3CCNCC3)cn12 [Compound 100, 2-[3-(difluoromethoxy)-4-hydroxyphenyl]-7-(piperazin-1-yl)-4H-pyrido[1,2-a]pyrimidin-4-one]	0.3 to 1	***** (a fold increase >1.65 is indicated by five stars (*****))	233 to 237	*** (an EC1.5× between >0.3 μM and ≤1 μM is indicated by three stars (***))
COc1ccc(-c2cc(=O)n3cc(N4CCN[C@@H](C)C4)ccc3n2)cc1OC(F)F [Compound 101, 2-[3-(difluoromethoxy)-4-methoxyphenyl]-7-[(3S)-3-methylpiperazin-1-yl]-4H-pyrido[1,2-a]pyrimidin-4-one]	0.3 to 1	*** (a fold increase between >1.35 and ≤1.5 is indicated by three stars (***))	167 to 169	
C[C@H]1CN(c2ccc3nc(-c4ccc(O)c(OC(F)F)c4)cc(=O)n3c2)CCN1 [Compound 102, 2-[3-(difluoromethoxy)-4-hydroxyphenyl]-7-[(3S)-3-methylpiperazin-1-yl]-4H-pyrido[1,2-a]pyrimidin-4-one]	0.3 to 1	***** (a fold increase >1.65 is indicated by five stars (*****))	192 to 197	*** (an EC1.5× between >0.3 μM and ≤1 μM is indicated by three stars (***))
COc1ccc(-c2cc(=O)n3cc(N4CCNCC4)ccc3c2)cc1F [Compound 103, 2-(3-fluoro-4-methoxyphenyl)-7-(piperazin-1-yl)-4H-quinolizin-4-one]	0.3 to 1	*** (a fold increase between >1.35 and ≤1.5 is indicated by three stars (***))	200 to 202	
COc1ccc(-c2cc(=O)n3cc(N4CCN[C@@H](C)C4)ccc3c2)cc1F [Compound 104, 2-(3-fluoro-4-methoxyphenyl)-7-[(3S)-3-methylpiperazin-1-yl]-4H-quinolizin-4-one]	0.3 to 1	*** (a fold increase between >1.35 and ≤1.5 is indicated by three stars (***))	188 to 192	
C[C@H]1CN(c2ccc3nc(-c4cc(F)cc(F)c4)cc(=O)n3c2)CCN1 [Compound 105, 2-(3,5-difluorophenyl)-7-[(3S)-3-methylpiperazin-1-yl]-4H-pyrido[1,2-a]pyrimidin-4-one]	0.1 to 0.3	**** (a fold increase between >1.5 and ≤1.65 is indicated by four stars (****))	189 to 194	*** (an EC1.5× between >0.3 μM and ≤1 μM is indicated by three stars (***))
COc1ccc(-c2cc(=O)n3cc(N4CCNCC4)ccc3n2)cc1Cl [Compound 110, 2-(3-chloro-4-methoxyphenyl)-7-(piperazin-1-yl)-4H-pyrido[1,2-a]pyrimidin-4-one]	0.1 to 0.3	*** (a fold increase between >1.35 and ≤1.5 is indicated by three stars (***))	201 to 203	
COc1ccc(-c2cc(=O)n3cc(N4CCN[C@@H](C)C4)ccc3n2)cc1Cl [Compound 111, 2-(3-chloro-4-methoxyphenyl)-7-[(3S)-3-methylpiperazin-1-yl]-4H-pyrido[1,2-a]pyrimidin-4-one]	0.1 to 0.3	*** (a fold increase between >1.35 and ≤1.5 is indicated by three stars (***))	187 to 189	
CCOc1cc(-c2cc(=O)n3cc(N4CCNCC4)ccc3n2)ccc1OC [Compound 112, 2-(3-ethoxy-4-methoxyphenyl)-7-(piperazin-1-yl)-4H-pyrido[1,2-a]pyrimidin-4-one]	0.3 to 1	*** (a fold increase between >1.35 and ≤1.5 is indicated by three stars (***))	194 to 196	
CCOc1cc(-c2cc(=O)n3cc(N4CCN[C@@H](C)C4)ccc3n2)ccc1OC [Compound 113, 2-(3-ethoxy-4-methoxyphenyl)-7-[(3S)-3-methylpiperazin-1-yl]-4H-pyrido[1,2-a]pyrimidin-4-one]	1 to 3	*** (a fold increase between >1.35 and ≤1.5 is indicated by three stars (***))	159 to 162	
Cc1cn2cc(-c3cc(=O)n4cc(N5C[C@@H](C)N[C@@H](C)C5)ccc4n3)ccc2n1 [Compound 117, 7-[(3R,5S)-3,5-dimethylpiperazin-1-yl]-2-(2-methylimidazo[1,2-a]pyridin-6-yl)-4H-pyrido[1,2-a]pyrimidin-4-one]	< 0.1	**** (a fold increase between >1.5 and ≤1.65 is indicated by four stars (****))	181 to 186	**** (an EC1.5x≤0.3 μM is indicated by four stars (****))
Cc1cn2cc(-c3cc(=O)n4cc(N5CCNCC5)ccc4n3)nc2c(C)n1 [Compound 118, 2-(6,8-dimethylimidazo[1,2-a]pyrazin-2-yl)-7-(piperazin-1-yl)-4H-pyrido[1,2-a]pyrimidin-4-one]	0.1 to 0.3	***** (a fold increase >1.65 is indicated by five stars (*****))	189 to 192	*** (an EC1.5× between >0.3 μM and ≤1 μM is indicated by three stars (***))
Cc1cn2cc(-c3cc(=O)n4cc(N5CCN[C@@H](C)C5)ccc4n3)nc2c(C)n1 [Compound 119, 2-(6,8-dimethylimidazo[1,2-a]pyrazin-2-yl)-7-[(3S)-3-methylpiperazin-1-yl]-4H-pyrido[1,2-a]pyrimidin-4-one]	0.1 to 0.3	***** (a fold increase >1.65 is indicated by five stars (*****))	202 to 208	*** (an EC1.5× between >0.3 μM and ≤1 μM is indicated by three stars (***))
